Columns and labels:
IL6 = assay: IL-6 Quantification Assay (ELISA), LPS-stimulated RAW 264.7; assay type: cell-based; parameters: inhibition: dose or concentration left out as unconfirmed; conditions: Mus musculus, RAW264.7; read-out: IL-6: % inh.
Erk1/2 phosphorylation = assay: Erk1/2 Phosphorylation Assay (western blot), Panc-1; assay type: cell-based, human; conditions: at 10 μM, * = activation
Procedure, shortened: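 KRas G12D Panc-1 cells were treated 6 h at 37° C with compound at 10 μM or serial dilutions for IC50 (0.3% DMSO). In method 1, cells were serum-starved overnight (0.5% FBS) and then given 1.5 ng/ml EGF for 15 min. In method 2, cells stayed in 10% FBS without stimulation. Lysate phospho-Erk1/2 (Thr202/Tyr204) was read by western blot.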

Akt phosphorylation = assay: Akt Phosphorylation Assay (western blot), Panc-1; assay type: cell-based, human; conditions: at 10 μM, * = activation
Procedure, shortened: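 Panc-1 (KRas G12D) cells were treated with compound at 10 μM final (0.3% DMSO) for 6 h at 37 °C, or with serial dilutions for IC50. Cells were either serum-starved overnight in 0.5% FBS and then stimulated with 1.5 ng/ml EGF for 15 min, or kept in 10% FBS without stimulation. Akt Ser473 phosphorylation in lysates was read by western blot.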

Compound | inhibition (IL6) [%] | % inh of Erk1/2 phosphorylation in Panc-1 (Erk1/2 phosphorylation) | % inh of Akt phosphorylation in Panc-1 (Akt phosphorylation)
Cc1c(-c2ccn(C)n2)cn2nc(-c3nccn3C)nc(Nc3ccc(C(C)(C)O)cn3)c12 [Compound 241, 2-(6-((5-Methyl-2-(1-methyl-1H-imidazol-2-yl)-6-(1-methyl-1H-pyrazol-3-yl)pyrrolo[2,1-f][1,2,4]triazin-4-yl)amino)pyridin-3-yl)propan-2-ol] | 25 to 49 | D* (85-100% activation) | D* (85-100% activation)
CO[C@H]1CC[C@H](Nc2nc(-c3nccn3C)nn3cc(-c4ccncc4)c(-c4ccccc4)c23)C1 (racemic) [Compound 201, rac N-((1S,3S)-3-Methoxycyclopentyl)-2-(1-methyl-1H-imidazol-2-yl)-5-phenyl-6-(pyridin-4-yl)pyrrolo[2,1-f][1,2,4]triazin-4-amine] | 75 to 100 | D* (85-100% activation) | B (26-49% inhibition)
COc1cc(Nc2nc(-c3nccn3C)nn3cc(-c4ccn(C)n4)c(C)c23)ncc1C1CC1 [Compound 238, N-(5-Cyclopropyl-4-methoxypyridin-2-yl)-5-methyl-2-(1-methyl-1H-imidazol-2-yl)-6-(1-methyl-1H-pyrazol-3-yl)pyrrolo[2,1-f][1,2,4]triazin-4-amine] | 75 to 100 | A (1-25% inhibition) | D* (85-100% activation)
COc1cc(Nc2nc(-c3nccn3C)nn3cc(-c4ccn(C)n4)c(C)c23)ncc1C [Compound 235, N-(4-Methoxy-5-methylpyridin-2-yl)-5-methyl-2-(1-methyl-1H-imidazol-2-yl)-6-(1-methyl-1H-pyrazol-3-yl)pyrrolo[2,1-f][1,2,4]triazin-4-amine] | 50 to 84 | B* (26-49% activation) | D* (85-100% activation)
CO[C@H]1CC[C@@H](Nc2nc(-c3nccn3C)nn3cc(-c4ccncc4)c(-c4ccccc4)c23)C1 (racemic) [Compound 200, rac N-((1R,3S)-3-Methoxycyclopentyl)-2-(1-methyl-1H-imidazol-2-yl)-5-phenyl-6-(pyridin-4-yl)pyrrolo[2,1-f][1,2,4]triazin-4-amine] | 1 to 24 | D* (85-100% activation) | B (26-49% inhibition)
Cc1c(-c2ccn(C)n2)cn2nc(-c3nccn3C)nc(Nc3ccc(OC(F)F)cn3)c12 [Compound 231, N-(5-(Difluorometh-oxy)pyridin-2-yl)-5-methyl-2-(1-methyl-1H-imidazol-2-yl)-6-(1-methyl-1H-pyrazol-3-yl)pyrrolo[2,1-f][1,2,4]triazin-4-amine] | 1 to 24 | D* (85-100% activation) | D* (85-100% activation)
COc1ccc(N(C)c2nc(-c3nccn3C)nn3cc(-c4ccn(C)n4)c(C)c23)nc1 [Compound 225, N-(5-Methoxypyridin-2-yl)-N,5-dimethyl-2-(1-methyl-1H-imidazol-2-yl)-6-(1-methyl-1H-pyrazol-3-yl)pyrrolo[2,1-f][1,2,4]triazin-4-amine] | 0 | B (26-49% inhibition) | A* (1-25% activation)
CO[C@@H]1C[C@H]1Nc1nc(-c2nccn2C)nn2cc(-c3cccnc3)c(-c3ccccc3)c12 (racemic) [Compound 190, N-((1R,2R)-2-Methoxycyclopropyl)-2-(1-methyl-1H-imidazol-2-yl)-5-phenyl-6-(pyridin-3-yl)pyrrolo[2,1-f][1,2,4]triazin-4-amine] | 50 to 74 | D* (85-100% activation) | D* (85-100% activation)
COc1ccc(Nc2nc(-c3nccn3C)nn3cc(-c4ccn(C)n4)c(C)c23)nc1 [Compound 224, N-(5-Methoxypyridin-2-yl)-5-methyl-2-(1-methyl-1H-imidazol-2-yl)-6-(1-methyl-1H-pyrazol-3-yl)pyrrolo[2,1-f][1,2,4]triazin-4-amine] | 50 to 74 | C* (46-84% activation) | D* (85-100% activation)
COc1ccnc(Oc2nc(-c3nccn3C)nn3cc(-c4ccn(C)n4)c(C)c23)c1 [Compound 220, 4-((4-Methoxypyridin-2-yl)oxy)-5-methyl-2-(1-methyl-1H-imidazol-2-yl)-6-(1-methyl-1H-pyrazol-3-yl)pyrrolo[2,1-f][1,2,4]triazine] | 25 to 49 | A (1-25% inhibition) | A (1-25% inhibition)
COc1cccc(-c2cn3nc(-c4nccn4C)nc(O)c3c2C)c1Cl [Compound 15, 6-(2-Chloro-3-methoxyphenyl)-5-methyl-2-(1-methyl-1H-imidazol-2-yl)pyrrolo[2,1-f][1,2,4]triazin-4-ol] | 50 to 74 | 0 (0% inhibition) | 0 (0% inhibition)
CO[C@H]1C[C@H](Nc2nc(-c3nccn3C)nn3cc(-c4ccccc4)c(-c4ccccc4)c23)C1 [Compound 203, N-((1r,3r)-3-Methoxycyclobutyl)-2-(1-methyl-1H-imidazol-2-yl)-5,6-diphenylpyrrolo[2,1-f][1,2,4]triazin-4-amine] | 75 to 100 | D (85-100% inhibition) | D (85-100% inhibition)
COc1ccnc(N(C)c2nc(-c3nccn3C)nn3cc(-c4ccn(C)n4)c(C)c23)c1 [Compound 223, N-(4-Methoxypyridin-2-yl)-N,5-dimethyl-2-(1-methyl-1H-imidazol-2-yl)-6-(1-methyl-1H-pyrazol-3-yl)pyrrolo[2,1-f][1,2,4]triazin-4-amine] | 0 | A (1-25% inhibition) | B (26-49% inhibition)
Cc1c(-c2ccn(C)n2)cn2nc(-c3nccn3C)nc(Nc3ccc(C(F)(F)F)cn3)c12 [Compound 233, 5-Methyl-2-(1-methyl-1H-imidazol-2-yl)-6-(1-methyl-1H-pyrazol-3-yl)-N-(5-(trifluoromethyl)pyridin-2-yl)pyrrolo[2,1-f][1,2,4]triazin-4-amine] | 25 to 49 | D* (85-100% activation) | D* (85-100% activation)
CO[C@H]1C[C@H](Nc2nc(-c3nccn3C)nn3cc(-c4ccncc4)c(-c4ccccc4)c23)C1 [Compound 199, N-((1r,3r)-3-Methoxycyclobutyl)-2-(1-methyl-1H-imidazol-2-yl)-5-phenyl-6-(pyridin-4-yl)pyrrolo[2,1-f][1,2,4]triazin-4-amine] | 75 to 100 | D* (85-100% activation) | A (1-25% inhibition)
CO[C@H]1CC[C@@H](Nc2nc(-c3nccn3C)nn3cc(-c4cccnc4)c(-c4ccccc4)c23)C1 (racemic) [Compound 193, rac N-((1R,3S)-3-Methoxycyclopentyl)-2-(1-methyl-1H-imidazol-2-yl)-5-phenyl-6-(pyridin-3-yl)pyrrolo[2,1-f][1,2,4]triazin-4-amine] | 75 to 100 | D* (85-100% activation) | D* (85-100% activation)

From patent US12459951B2, “Compounds that interact with RAS superfamily proteins for treatment of cancers, inflammatory diseases, rasopathies, and fibrotic disease” (SHY Therapeutics, LLC, priority 2022, dated 2025)
